Reference: the supplement of paper PMC10307832

Columns and labels:
Test in all cases: relative viability (nuclei count vs DMSO), 5 days (fraction); higher = more cells survive
Seliciclib + Luminespib = compound: CC[C@H](CO)Nc1nc(NCc2ccccc2)c2ncn(C(C)C)c2n1 [Seliciclib] + CCNC(=O)c1noc(-c2cc(C(C)C)c(O)cc2O)c1-c1ccc(CN2CCOCC2)cc1 [Luminespib] (partner 0.01 µM)
In short: (§1)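 The day after seeding in 1536-well plates, lung cancer cell lines were treated by pin tool with a single drug, or with a fixed anchor-drug dose together with five library-drug doses (not always all listed) in √10 steps. After 5 days, a combined fix-and-stain solution (final 0.05% Triton X-100, 1% formaldehyde, 1 ug/ml Hoechst) was added. Nuclei counted on 4× images gave relative viability as treated counts over vehicle counts, reported as the median of duplicate plates.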

Seliciclib + Foretinib = compound: CC[C@H](CO)Nc1nc(NCc2ccccc2)c2ncn(C(C)C)c2n1 [Seliciclib] + COc1cc2c(Oc3ccc(NC(=O)C4(C(=O)Nc5ccc(F)cc5)CC4)cc3F)ccnc2cc1OCCCN1CCOCC1 [Foretinib] (partner 0.25 µM)
In short: as §1

Seliciclib + Dasatinib = compound: CC[C@H](CO)Nc1nc(NCc2ccccc2)c2ncn(C(C)C)c2n1 [Seliciclib] + Cc1nc(Nc2ncc(C(=O)Nc3c(C)cccc3Cl)s2)cc(N2CCN(CCO)CC2)n1 [Dasatinib] (partner 0.075 µM)
In short: as §1

Seliciclib + Decitabine = compound: CC[C@H](CO)Nc1nc(NCc2ccccc2)c2ncn(C(C)C)c2n1 [Seliciclib] + Nc1ncn([C@H]2C[C@H](O)[C@@H](CO)O2)c(=O)n1 [Decitabine] (partner 2 µM)
In short: as §1

| Cell Line | relative viability (Seliciclib + Luminespib; first compound 0.08 µM) | relative viability (Seliciclib + Luminespib; first compound 0.253 µM) | relative viability (Seliciclib + Luminespib; first compound 0.8 µM) | relative viability (Seliciclib + Luminespib; first compound 2.53 µM) | relative viability (Seliciclib + Luminespib; first compound 8 µM) | relative viability (Seliciclib + Foretinib; first compound 0.08 µM) | relative viability (Seliciclib + Foretinib; first compound 0.253 µM) | relative viability (Seliciclib + Foretinib; first compound 0.8 µM) | relative viability (Seliciclib + Foretinib; first compound 2.53 µM) | relative viability (Seliciclib + Foretinib; first compound 8 µM) | relative viability (Seliciclib + Dasatinib; first compound 0.08 µM) | relative viability (Seliciclib + Dasatinib; first compound 0.253 µM) | relative viability (Seliciclib + Dasatinib; first compound 0.8 µM) | relative viability (Seliciclib + Dasatinib; first compound 2.53 µM) | relative viability (Seliciclib + Dasatinib; first compound 8 µM) | relative viability (Seliciclib + Decitabine; first compound 0.08 µM) | relative viability (Seliciclib + Decitabine; first compound 0.253 µM) | relative viability (Seliciclib + Decitabine; first compound 0.8 µM) | relative viability (Seliciclib + Decitabine; first compound 2.53 µM) | relative viability (Seliciclib + Decitabine; first compound 8 µM) |
| --- | --- | --- | --- | --- | --- | --- | --- | --- | --- | --- | --- | --- | --- | --- | --- | --- | --- | --- | --- | --- |
| NCI-H441 | 0.319 | 0.296 | 0.341 | 0.299 | 0.299 | 0.791 | 0.86 | 0.969 | 0.93 | 0.623 | 0.732 | 0.848 | 0.536 | 0.339 | 0.601 | 0.262 | 0.265 | 0.258 | 0.201 | 0.256 |
| NCI-H460 | 0.0402 | 0.0324 | 0.0419 | 0.0357 | 0.0269 | 0.993 | 1.05 | 1 | 1.06 | 0.882 | 0.524 | 0.391 | 0.357 | 0.288 | 0.363 | 0.455 | 0.57 | 0.446 | 0.591 | 0.388 |
| NCI-H520 | 0.234 |  | 0.175 | 0.315 | 0.205 | 0.759 |  | 0.826 | 0.76 | 0.858 | 0.167 |  | 0.258 | 0.219 | 0.178 | 0.522 | 0.486 | 0.537 | 0.632 | 0.643 |
| NCI-H596 | 0.802 |  | 1 | 0.84 | 0.745 | 0.849 |  | 0.843 | 0.68 | 0.65 | 0.658 |  | 0.594 | 0.606 | 0.515 | 0.951 |  | 0.961 | 1.03 | 0.828 |
| NCI-H647 | 0.111 | 0.206 | 0.127 | 0.128 | 0.163 | 1.16 |  | 1.13 | 1.19 | 1.09 | 0.225 |  | 0.209 | 0.166 | 0.189 | 0.314 | 0.235 | 0.562 | 0.453 | 0.452 |
| NCI-H650 | 0.807 | 0.757 | 0.921 | 0.727 | 0.709 | 1.03 | 1.03 | 0.912 | 0.842 | 0.856 | 0.447 | 0.387 | 0.596 | 0.262 | 0.39 | 0.333 | 0.299 | 0.306 | 0.295 | 0.332 |
| NCI-H661 | 0.9 | 1.07 | 0.853 | 0.809 | 0.756 | 1.03 | 0.936 | 0.975 | 0.945 | 0.636 | 0.832 | 1.03 | 0.9 | 0.739 | 0.547 | 0.552 | 0.597 | 0.549 | 0.511 | 0.435 |
| NCI-H727 | 0.338 | 0.447 | 0.372 | 0.321 | 0.271 | 0.905 | 0.917 | 0.716 | 0.661 | 0.896 | 0.481 | 0.504 | 0.342 | 0.307 | 0.336 | 0.874 | 0.88 | 0.82 | 0.441 | 0.861 |
| NCI-H838 | 0.356 | 0.27 | 0.332 | 0.28 | 0.344 | 0.902 | 0.928 | 0.998 | 1.11 | 0.808 | 0.341 | 0.198 | 0.26 | 0.218 | 0.303 | 0.457 | 0.508 | 0.437 | 0.411 | 0.381 |
| NCI-H1355 | 0.722 | 0.638 | 0.643 | 0.713 | 0.684 | 0.95 | 0.976 | 0.706 | 1.03 | 0.93 | 0.755 | 0.585 | 0.683 | 0.544 | 0.686 | 0.35 | 0.334 | 0.356 | 0.374 | 0.38 |
| NCI-H1395 | 0.709 | 0.722 | 0.726 | 0.588 | 0.669 | 0.974 | 0.905 | 0.978 | 0.995 | 0.966 | 0.464 | 0.406 | 0.428 | 0.361 | 0.368 | 0.729 | 0.621 | 0.681 |  | 0.705 |
| NCI-H1437 | 0.999 | 1.2 | 1.05 | 1.05 | 0.809 | 1.2 | 1.31 | 1.26 | 1.31 | 1.18 | 0.465 | 0.438 | 0.323 | 0.233 | 0.335 | 0.557 | 0.563 | 0.566 | 0.477 | 0.56 |
| NCI-H1650 | 0.195 | 0.185 | 0.216 | 0.199 | 0.193 | 0.984 | 1.1 | 0.956 | 1.35 | 0.981 | 0.3 | 0.344 | 0.304 | 0.247 | 0.285 | 0.439 | 0.278 | 0.437 | 0.403 | 0.52 |
| NCI-H1651 | 0.864 | 0.958 | 0.876 | 0.594 | 0.564 | 0.583 | 0.754 | 0.819 | 0.857 | 0.75 | 0.403 | 0.399 | 0.536 | 0.302 | 0.382 | 0.553 | 0.6 | 0.65 | 0.51 | 0.592 |
